Test results reported in patent US20240252651A1, “METHOD OF DELIVERING NUCLEIC ACIDS INTO CELLS” (GUANGZHOU LIDE BIOMEDICINE TECHNOLOGY CO., LTD., priority 2021, published 2024).
“Also recorded” adds a separate entry of the source.

Key:
Hela cells [1] = test: Transfection of GFP-expressing plasmid DNA in Hela cells (flow cytometer); type: cell-based, human; conditions: plasmid DNA 0.5 μg/well, material 0.25 to 8 μg/well (dosages per FIG. 4), 24 h
Protocol: In this experiment, with GFP-expressing plasmid DNA as a reporter gene, a gene transfection efficiency of a cationic lipid analog material in Hela cells was detected. A specific method was as follows:
Hela cells were inoculated in a 24-well plate and cultured in an incubator for 12 h; each of different cationic lipid analog materials (0.25 μg/well to 8 μg/well) was mixed with GFP-expressing plasmid DNA (0.5 μg/well) in 40 μL of a sodium acetate buffer (25 mM, pH 5.2), and resulting mixtures each were allowed to stand for 10 min and then diluted with 460 μL of an Opti-MEM medium to obtain plasmid DNA-loaded cationic lipid analog complex particle solutions; a medium for the Hela cells in the plate was removed, then the HeLa cells were washed once with PBS, and the complex particle solutions were added; and the cells were cultured for 24 h, and then a plasmid DNA transfection efficiency in cells was analyzed by a flow cytometer. A commercial gene transfection reagent Lipofectamine 2000 was adopted as a positive control.

DC 2.4 cells = test: Transfection of eGFP-mRNA in DC 2.4 cells (FCM and LSCM); type: cell-based, mouse; conditions: mRNA 0.2 μg/well, material 0.25 to 2 μg/well (dosages per FIG. 7), 24 h
Protocol: In this experiment, with eGFP-mRNA as model mRNA, an mRNA transfection efficiency of a cationic lipid analog material in DC 2.4 cells was detected. A specific operation method was as follows:
DC 2.4 cells were inoculated in a 48-well plate and cultured in an incubator for 12 h; each of different cationic lipid analog materials (0.25 μg/well to 2 μg/well) was mixed with cGFP-expressing mRNA (0.2 μg/well) in 20 μL of a sodium acetate buffer (25 mM, pH 5.2), and resulting mixtures each were allowed to stand for 10 min and then diluted with 230 μL of a Opti-MEM medium to obtain mRNA-loaded complex particle solutions; a medium for the […] were washed once with PBS, and the complex particle solutions were added; and the cells were cultured for 24 h, an mRNA transfection efficiency in cells was observed by FCM and LSCM. A commercial gene transfection reagent Lipofectamine 2000 was adopted as a positive control.

Hela cells [2] = test: Transfection of luciferase-expressing plasmid DNA in HeLa cells (luciferase expression); type: cell-based, human; conditions: plasmid DNA 0.5 μg, 24 h, luciferase expression level, FIG. 5
Protocol: In this example, with luciferase-expressing plasmid DNA as a reporter gene, a gene transfection efficiency of a cationic lipid analog material in HeLa cells was detected. A specific operation method was as follows: Hela cells were inoculated in a 96-well plate and cultured in an incubator for 12 h; each of different cationic lipid analog materials was mixed with luciferase-expressing plasmid DNA (0.5 μg) in 40 μL of a sodium acetate buffer (25 mM, pH 5.2), and resulting mixtures each were allowed to stand for 10 min and then diluted with 460 μL of an Opti-MEM medium to obtain plasmid DNA-loaded cationic lipid analog complex particle solutions; a medium for the Hela cells in the plate was removed, then the Hela cells were washed once with PBS, and the complex particle solutions were added in a volume of 125 μL; the cells were cultured for 24 h, then a resulting culture supernatant was discarded, and the cells were fully lysed; and a substrate was added at 50 μl/well, and an expression level of luciferase was detected by a multi-mode microplate reader.

Row | SMILES | transfection efficiency of GFP-expressing plasmid DNA, compared with commercial transfection reagent Lipofectamine 2000 (Hela cells [1]) | mRNA transfection efficiency (eGFP-mRNA), compared with Lipofectamine 2000 (DC 2.4 cells; FIG. 7-9) | also measured
1 | CCCCCCCC/C=C\CCCCCCCC(=O)N(CCC1CCCN1C)C(C(=O)NCCOCCOCCNC(=O)C(C(C)C)N(CCC1CCCN1C)C(=O)CCCCCCC/C=C\CCCCCCCC)C(C)C (stereo not drawn) [I2R11C18-1A1] | reaches or is higher than; also recorded: equivalent to or higher than | high transfection efficiency; also recorded: equivalent to or higher than | –
2 | CCCCCCCCCCCCCC(=O)N(CCCN(CC)CC)C(C(=O)NCCOCCOCCNC(=O)C(C(C)C)N(CCCN(CC)CC)C(=O)CCCCCCCCCCCCC)C(C)C (stereo not drawn) [I2R3C14A1] | – | high transfection efficiency; also recorded: equivalent to or higher than | –
3 | CCCCCCCCCCCCCCCC(=O)N(CCCN(C)C)C(C(=O)NCCCCCCNC(=O)C(C(C)C)N(CCCN(C)C)C(=O)CCCCCCCCCCCCCCC)C(C)C (stereo not drawn) [I1R2C16A1] | – | – | mRNA transfection efficiency (eGFP-mRNA), compared with Lipofectamine 2000 (DC 2.4 cells; FIG. 7-9, listed as 11R2C16A1): high transfection efficiency; also recorded: equivalent to or higher than
4 | CCCCCCCCCCCCCCCC(=O)N(CCN(C)C)C(C(=O)NCCOCCOCCNC(=O)C(C(C)C)N(CCN(C)C)C(=O)CCCCCCCCCCCCCCC)C(C)C (stereo not drawn) [I2R1C16A1] | reaches or is higher than; also recorded: equivalent to or higher than | high transfection efficiency; also recorded: equivalent to or higher than | transfection efficiency of luciferase-expressing plasmid DNA, compared with Lipofectamine 2000 (Hela cells [2]): equivalent to or higher than
5 | CCCCC/C=C\C/C=C\CCCCCCCC(=O)N(CCCN(C)C)C(C(=O)NCCCCCCNC(=O)C(C(C)C)N(CCCN(C)C)C(=O)CCCCCCC/C=C\C/C=C\CCCCC)C(C)C (stereo not drawn) [I1R2C18-2A1] | reaches or is higher than | equivalent to or higher than | transfection efficiency of GFP-expressing plasmid DNA, compared with commercial transfection reagent Lipofectamine 2000 (Hela cells [1]; listed as 11R2C18-2A1): equivalent to or higher than; mRNA transfection efficiency (eGFP-mRNA), compared with Lipofectamine 2000 (DC 2.4 cells; FIG. 7-9, listed as 11R2C18-2A1): high transfection efficiency
6 | CCCCCCCCCCCCCCCC(=O)N(CCCN(CC)CC)C(C(=O)NCCOCCOCCNC(=O)C(C(C)C)N(CCCN(CC)CC)C(=O)CCCCCCCCCCCCCCC)C(C)C (stereo not drawn) [I2R3C16A1] | reaches or is higher than; also recorded: equivalent to or higher than | high transfection efficiency; also recorded: equivalent to or higher than | transfection efficiency of luciferase-expressing plasmid DNA, compared with Lipofectamine 2000 (Hela cells [2]): equivalent to or higher than
7 | CCCCCCCCCCCCCC(=O)N(CCC1CCCN1C)C(C(=O)NCCOCCOCCNC(=O)C(C(C)C)N(CCC1CCCN1C)C(=O)CCCCCCCCCCCCC)C(C)C (stereo not drawn) [I2R11C14A1] | reaches or is higher than; also recorded: equivalent to or higher than | high transfection efficiency; also recorded: equivalent to or higher than | –
8 | CCCCCCCCCCCCCCCC(=O)N(CCC1CCCN1C)C(C(=O)NCCCCCCNC(=O)C(C(C)C)N(CCC1CCCN1C)C(=O)CCCCCCCCCCCCCCC)C(C)C (stereo not drawn) [I1R11C16A1] | – | high transfection efficiency; also recorded: equivalent to or higher than | –
9 | CCCCCCCCCCCCCC(=O)N(CCN(C)C)C(C(=O)NCCOCCOCCNC(=O)C(C(C)C)N(CCN(C)C)C(=O)CCCCCCCCCCCCC)C(C)C (stereo not drawn) [I2R1C14A1] | reaches or is higher than; also recorded: equivalent to or higher than | high transfection efficiency; also recorded: equivalent to or higher than | transfection efficiency of luciferase-expressing plasmid DNA, compared with Lipofectamine 2000 (Hela cells [2]): equivalent to or higher than
10 | CCCCCCCCCCCCCC(=O)N(CCCN(C)C)C(C(=O)NCCOCCOCCNC(=O)C(C(C)C)N(CCCN(C)C)C(=O)CCCCCCCCCCCCC)C(C)C (stereo not drawn) [I2R2C14A1] | reaches or is higher than; also recorded: equivalent to or higher than | high transfection efficiency; also recorded: equivalent to or higher than | –
11 | CCCCCCCCCCCCCCCCCC(=O)N(CCCN(C)C)C(C(=O)NCCCCCCNC(=O)C(C(C)C)N(CCCN(C)C)C(=O)CCCCCCCCCCCCCCCCC)C(C)C (stereo not drawn) [I1R2C18A1] | – | – | mRNA transfection efficiency (eGFP-mRNA), compared with Lipofectamine 2000 (DC 2.4 cells; FIG. 7-9, listed as 11R2C18A1): high transfection efficiency; also recorded: equivalent to or higher than
12 | CCCCCCCCCCCCCCCCCC(=O)N(CCC1CCCN1C)C(C(=O)NCCOCCOCCNC(=O)C(C(C)C)N(CCC1CCCN1C)C(=O)CCCCCCCCCCCCCCCCC)C(C)C (stereo not drawn) [I2R11C18A1] | reaches or is higher than; also recorded: equivalent to or higher than | high transfection efficiency; also recorded: equivalent to or higher than | –
13 | CCCCCCCCCCCCCCCCCC(=O)N(CCCN(CC)CC)C(C(=O)NCCOCCOCCNC(=O)C(C(C)C)N(CCCN(CC)CC)C(=O)CCCCCCCCCCCCCCCCC)C(C)C (stereo not drawn) [I2R3C18A1] | reaches or is higher than; also recorded: equivalent to or higher than | high transfection efficiency; also recorded: equivalent to or higher than | transfection efficiency of luciferase-expressing plasmid DNA, compared with Lipofectamine 2000 (Hela cells [2]): equivalent to or higher than
14 | CCCCCCCC/C=C\CCCCCCCC(=O)N(CCN(C)C)C(C(=O)NCCOCCOCCNC(=O)C(C(C)C)N(CCN(C)C)C(=O)CCCCCCC/C=C\CCCCCCCC)C(C)C (stereo not drawn) [I2R1C18-1A1] | reaches or is higher than; also recorded: equivalent to or higher than | high transfection efficiency; also recorded: equivalent to or higher than | transfection efficiency of luciferase-expressing plasmid DNA, compared with Lipofectamine 2000 (Hela cells [2]): equivalent to or higher than
15 | CCCCCCCCCCCCCCCCCC(=O)N(CCC1CCCN1C)C(C(=O)NCCCCCCNC(=O)C(C(C)C)N(CCC1CCCN1C)C(=O)CCCCCCCCCCCCCCCCC)C(C)C (stereo not drawn) [I1R11C18A1] | – | – | mRNA transfection efficiency (eGFP-mRNA), compared with Lipofectamine 2000 (DC 2.4 cells; FIG. 7-9, listed as 11R11C18A1): high transfection efficiency; also recorded: equivalent to or higher than
16 | CCCCCCCC/C=C\CCCCCCCC(=O)N(CCCN(C)C)C(C(=O)NCCCCCCNC(=O)C(C(C)C)N(CCCN(C)C)C(=O)CCCCCCC/C=C\CCCCCCCC)C(C)C (stereo not drawn) [I1R2C18-1A1] | – | – | mRNA transfection efficiency (eGFP-mRNA), compared with Lipofectamine 2000 (DC 2.4 cells; FIG. 7-9, listed as 11R2C18-1A1): high transfection efficiency; also recorded: equivalent to or higher than
17 | CCCCCCCCCCCCCCCC(=O)N(CCC1CCCN1C)C(C(=O)NCCOCCOCCNC(=O)C(C(C)C)N(CCC1CCCN1C)C(=O)CCCCCCCCCCCCCCC)C(C)C (stereo not drawn) [I2R11C16A1] | reaches or is higher than; also recorded: equivalent to or higher than | high transfection efficiency; also recorded: equivalent to or higher than | –
18 | CCCCC/C=C\C/C=C\CCCCCCCC(=O)N(CCN(C)C)C(C(=O)NCCOCCOCCNC(=O)C(C(C)C)N(CCN(C)C)C(=O)CCCCCCC/C=C\C/C=C\CCCCC)C(C)C (stereo not drawn) [I2R1C18-2A1] | reaches or is higher than; also recorded: equivalent to or higher than | – | –
